US20210386756A1, “IMPROVEMENTS FOR PERFORMING AND FACILITATING THE RECOVERY AFTER HEMATOPOIETIC STEM CELL TRANSPLANTATION” (Centro de Investigaciones Energéticas, Medioambientales y …, priority 2018, published 2021)

Assays:
human cord blood CD34+ = assay: Human engraftment in female NSG mice transplanted with a limited CD34+ cell dose (5×10^3); assay type: in vivo, mouse; conditions: low dose 5×10^3 hCD34+, mean +/− SEM
Text: FIG. 7A indicates human hematopoietic reconstitution after four months. […] However, in spite of this presence of endogenous estrogens, the human engraftment in female recipients was increased after E2 and more importantly after E4 treatment. FIG. 7B relates the presence of primitive hematopoietic progenitors was higher in the female mice treated with estrogens, which indicated the quality of the reconstitution. (Kruskal-Wallis test; P<0.05, 4 mice per group). […] Three-four months later, the animals were sacrificed and the human hematopoietic engraftment was analyzed by FACS. Human hematopoietic population was identified as the cells positive for hCD45-APC-Cy7 (Biolegend) and negative for mouse CD45.1-PE (Biolegend). To assess whether estrogen can improve hematopoietic reconstitution in female recipients, female NSG were irradiated and transplanted by a low doses of human cord blood CD34^+ (5×10^3 hCD34^+). The human engraftment was analyzed as described in Example 1. […] However, in spite of this presence of endogenous estrogens, the human engraftment in female recipients was increased after E2 and more importantly after E4 treatment.

[1] = tested on: hCD34+ hematopoietic progenitors; assay: In vitro toxicity of natural estrogens for hematopoietic progenitors (hCD34+ culture, FACS subsets); assay type: cell-based, human; conditions: for % CD34+/CD38− / % HSC / % MLP / % MPP: four days culture
Procedure: FIG. 9 relates the effect of different concentration of E1, E2, E3 and E4 in human hematopoietic progenitors. Human hematopoietic progenitors were culture in phenol red free media supplemented with 100 ng/mL SCF, 100 ng/ml FLT3L and 100 ng/ml TPO and different concentration of E1, E2, E3 and E4 (from 10 nM to 500 μM). FIG. 9A represents the fold increase of the number of hematopoietic cells after four days in culture. FIG. 9B indicates the total number of primitive hematopoietic progenitors (CD34^+/CD38^−) present in the culture, extrapolated from number of cells and the frequency of this population analyzed by FACS. […] Grey dashed lines point the value of control group, and red dashed lines indicate the initial values at day 0. (Kruskal-Wallis test; P<0.05, data from four independent experiments).
To assess the toxicity of the natural estrogens (E1, E2, E3 and E4) for hematopoietic progenitors, in vitro studies were performed. 5×10^4 hCD34^+ were cultured in a phenol red-free media, X-Vivo 20 (Lonza), in presence of 100 ng/ml SCF, 100 ng/ml FLT3L, 100 ng/ml TPO, 0.5% PS, 1% Glutamax (Thermofisher) and different concentrations of E1, E2, E3 or E4 (from 10 nM to 500 μM). Cell proliferation and immunophenotype of different hematopoietic subsets (CD34^+/CD38^−, HSC [CD34^+/CD38^−/CD45RA^−/CD90^+], Multipotent Progenitors [MPP, CD34^+/CD38^−/CD45RA^−/CD90^−], Multipotent Lymphoid Progenitors [MLP, CD34^+/CD38^−/CD45RA^+] were evaluated at day 0 and four days after culture.

[2] = tested on: mouse MSCs (mCD140a+) and vascular endothelial cells (mCD144+); assay: Mouse BM niche analysis (MSCs and vascular endothelial cells) after transplant and estrogen treatment; assay type: in vivo; conditions: four months after transplant, versus vehicle-treated animals
Procedure: FIG. 12 refers to modulation of the hematopoietic niche by estrogens. […] FIG. 12B refers to the relative mouse vascular endothelial cells (mCD144+ or VE-Cadherin+) in the BM of the male mice transplanted with 5×10^4 hCB-CD34+ cells analyzed 4 months after transplantation. […] Data are presented by dots and box-plots that represent the interquartile range (p75, upper edge; p25, lower edge; p50, midline; p95, line above the box; and p5, line below the box). Significance was analyzed by Mann-Whitney U test and represented by **P<0.01.
To provide a further insight into the positive impact of estrogens on promoting human hematopoietic engraftment, we examined mesenchymal and vascular endotelial compartments of the mouse BM niche four months after being transplanted and treated with E2 (estradiol) or E4 (estetrol). The percentage of mouse MSCs (mCD140a+, also called Pdgfra+) and vascular endothelial cells (mCD144+, also called VE-Cadherin+) was analyzed in the non-hematopoietic compartment ([…]).

[3] = relative to other estrogens; cited from earlier work

Question: For `C[C@]12CC[C@@H]3c4ccc(O)cc4CC[C@H]3[C@@H]1[C@@H](O)[C@@H](O)[C@@H]2O` [E4, estetrol], which “Percentage of hematopoietic stem cells (hCD34+/hCD38−) in the human hematopoietic population” value (human cord blood CD34+) is on record?
Answer: The value was 0.39 +/− 0.08 (n = 3) %.

Question: What about the “Percentage of human hematopoietic reconstitution” value (human cord blood CD34+) of the same compound?
Answer: The value was 40.80 +/− 4.58 (n = 3) %.

Question: What about the “toxicity for hematopoietic progenitor subpopulations” value ([1]; 10 nM to 500 μM, in vitro) of the same compound?
Answer: Its value is “less toxic”.

Question: What about the “% CD34+/CD38−” value ([1]; 10 nM) of the same compound?
Answer: Its value is 13.35 ± 0.87%.

Question: And the “% HSC” value ([1]; 10 nM)?
Answer: Its value is 1.75 ± 0.13%.

Question: And the “% MLP” value ([1]; 10 nM)?
Answer: Its value is 4.29 ± 0.44%.

Question: What about the “% MPP” value ([1]; 10 nM) of the same compound?
Answer: Its value is 4.39 ± 0.25%.

Question: And the “% CD34+/CD38−” value ([1]; 100 nM)?
Answer: The value was 12.60 ± 0.68%.

Question: What about the “% HSC” value ([1]; 100 nM) of the same compound?
Answer: Its value is 1.67 ± 0.12%.

Question: And the “% MLP” value ([1]; 100 nM)?
Answer: The value was 4.42 ± 0.16%.

Question: And the “% MPP” value ([1]; 100 nM)?
Answer: The value was 4.35 ± 0.56%.

Question: And the “% CD34+/CD38−” value ([1]; 1 μM)?
Answer: Its value is 12.08 ± 1.22%.

Question: What about the “% HSC” value ([1]; 1 μM) of the same compound?
Answer: Its value is 1.86 ± 0.20%.

Question: And the “% MLP” value ([1]; 1 μM)?
Answer: Its value is 3.48 ± 0.73%.

Question: What about the “% MPP” value ([1]; 1 μM) of the same compound?
Answer: Its value is 4.89 ± 0.30%.

Question: What about the “% CD34+/CD38−” value ([1]; 10 μM) of the same compound?
Answer: Its value is 13.62 ± 0.54%.

Question: And the “% HSC” value ([1]; 10 μM)?
Answer: The value was 2.03 ± 0.04%.

Question: And the “% MLP” value ([1]; 10 μM)?
Answer: Its value is 4.30 ± 0.29%.

Question: And the “% MPP” value ([1]; 10 μM)?
Answer: Its value is 4.57 ± 0.35%.

Question: What about the “% CD34+/CD38−” value ([1]; 100 μM) of the same compound?
Answer: Its value is 17.26 ± 2.24%.

Question: What about the “% HSC” value ([1]; 100 μM) of the same compound?
Answer: The value was 3.67 ± 0.65%.

Question: And the “% MLP” value ([1]; 100 μM)?
Answer: The value was 5.66 ± 1.49%.

Question: What about the “% MPP” value ([1]; 100 μM) of the same compound?
Answer: The value was 3.85 ± 0.32%.

Question: What about the “% CD34+/CD38−” value ([1]; 500 μM) of the same compound?
Answer: The value was 10.82 ± 2.79%.

Question: What about the “% HSC” value ([1]; 500 μM) of the same compound?
Answer: Its value is 3.76 ± 1.25%.

Question: And the “% MLP” value ([1]; 500 μM)?
Answer: Its value is 0.89 ± 0.18%.

Question: What about the “% MPP” value ([1]; 500 μM) of the same compound?
Answer: Its value is 3.11 ± 1.20%.

Question: And the “number of mCD140a+ cells (mouse MSCs) in BM” value [2]?
Answer: The value was “increased”.

Question: And the in vivo half-life [3]?
Answer: Its in vivo half-life is “considerably longer than that of other estrogens”.
